# Assay results reported in PubChem BioAssay AID330 (DTP/NCI, 2004).
# “And” between values parts separate entries of the source, which are not always exact repeats. Identical values can stand only once. Toxic doses and inconclusive results are not listed.
# Test system: P388 leukemia ip, CD2F1 mice, survival T/C
# Assay: NCI In Vivo Anticancer Drug Screen. Data for tumor model P388 Leukemia (intraperitoneal) in CD2F1 (CDF1) mice
# Settings: endpoint: median survival time, higher = longer survival
# Method in brief: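 Mice carrying the transplanted tumor received test compound or vehicle. Survival was recorded in each group, and the value is the treated-group measurement divided by that of the vehicle-treated control group.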
# [1] = dose: 60.0 mg/kg/injection, schedule: Q01DX005 (ip), vehicle: saline
# [2] = dose: 120.0 mg/kg/injection, schedule: Q01DX005 (ip), vehicle: saline
# [3] = dose: 240.0 mg/kg/injection, schedule: Q01DX005 (ip), vehicle: saline
# [4] = dose: 50.0 mg/kg/injection, schedule: Q01DX009 (ip), vehicle: Klucel (hydroxypropylcellulose) (HPC)
# [5] = dose: 100.0 mg/kg/injection, schedule: Q01DX009 (ip), vehicle: Klucel (hydroxypropylcellulose) (HPC)
# [6] = dose: 200.0 mg/kg/injection, schedule: Q01DX009 (ip), vehicle: Klucel (hydroxypropylcellulose) (HPC)
# [7] = dose: 60.0 mg/kg/injection, schedule: Q01DX005 (ip), vehicle: saline with Tween-80
# [8] = dose: 120.0 mg/kg/injection, schedule: Q01DX005 (ip), vehicle: saline with Tween-80
# [9] = dose: 12.5 mg/kg/injection, schedule: Q01DX009 (ip), vehicle: saline with Tween-80
# [10] = dose: 25.0 mg/kg/injection, schedule: Q01DX009 (ip), vehicle: saline with Tween-80
# [11] = dose: 50.0 mg/kg/injection, schedule: Q01DX009 (ip), vehicle: saline with Tween-80
# [12] = dose: 50.0 mg/kg/injection, schedule: Q01DX009 (ip), vehicle: saline
# [13] = dose: 50.0 mg/kg/injection, schedule: Q01DX005 (ip), vehicle: Klucel (hydroxypropylcellulose) (HPC)
# [14] = dose: 100.0 mg/kg/injection, schedule: Q01DX005 (ip), vehicle: Klucel (hydroxypropylcellulose) (HPC)
# [15] = dose: 200.0 mg/kg/injection, schedule: Q01DX005 (ip), vehicle: Klucel (hydroxypropylcellulose) (HPC)
# [16] = dose: 50.0 mg/kg/injection, schedule: Q01DX005 (ip), vehicle: saline with Tween-80
# [17] = dose: 100.0 mg/kg/injection, schedule: Q01DX005 (ip), vehicle: saline with Tween-80
# [18] = dose: 200.0 mg/kg/injection, schedule: Q01DX005 (ip), vehicle: saline with Tween-80
# [19] = dose: 12.5 mg/kg/injection, schedule: Q01DX009 (ip), vehicle: saline
# [20] = dose: 25.0 mg/kg/injection, schedule: Q01DX009 (ip), vehicle: saline
smiles,measurement,setting,value
CCNC(=O)C12CCC(C)(C(=O)O1)C2(C)C (centres undefined),T/C,[1],93 % of control
same,T/C,[2],98 % of control
same,T/C,[3],101 % of control
N=C(/C(=C/c1cccc2ccccc12)c1ccccc1)c1ccccc1,T/C,[4],98 % of control
same,T/C,[5],104 % of control
same,T/C,[6],108 % of control
COC(=O)Nc1nc2ccc(SC)cc2c(=O)[nH]1,T/C,[4],103 % of control and 105 % of control
same,T/C,[5],113 % of control
CCOC(=O)C1=NN(c2ccccc2)C(C(=O)OC)[C@@H]1C(=O)OC (some centres undefined),T/C,[7],99 % of control
same,T/C,[8],98 % of control
same,T/C,"dose: 240.0 mg/kg/injection, schedule: Q01DX005 (ip), vehicle: saline with Tween-80",96 % of control
COc1ccc2c(c1CCl)C(=O)OC2,T/C,[9],96 % of control
same,T/C,[10],111 % of control
same,T/C,[11],101 % of control and 89 % of control
COc1cccc(C(OC(=O)c2ccccc2)c2nncc3ccccc23)c1OC (centres undefined),T/C,[4],100 % of control
same,T/C,[5],103 % of control
same,T/C,[6],100 % of control
COc1ccc(C(C)c2cc3c(cc2OC)OCO3)cc1O (centres undefined),T/C,"dose: 50.0 mg/kg/injection, schedule: Q01DX005 (ip), vehicle: distilled water + Tween-80",111 % of control
same,T/C,"dose: 100.0 mg/kg/injection, schedule: Q01DX005 (ip), vehicle: distilled water + Tween-80",102 % of control
same,T/C,"dose: 200.0 mg/kg/injection, schedule: Q01DX005 (ip), vehicle: distilled water + Tween-80",105 % of control
O=C1c2ccccc2C(=O)N1S(=O)(=O)C/C=C/CCl,T/C,[9],94 % of control
same,T/C,[10],97 % of control
same,T/C,[11],105 % of control
same,T/C,[12],110 % of control
same,T/C,"dose: 100.0 mg/kg/injection, schedule: Q01DX009 (ip), vehicle: saline",103 % of control
same,T/C,"dose: 200.0 mg/kg/injection, schedule: Q01DX009 (ip), vehicle: saline",108 % of control
Oc1ccccc1-c1cc(-c2ccccc2)nc(NCCCCCCCCNc2nc(-c3ccccc3)cc(-c3ccccc3O)n2)n1,T/C,"dose: 100.0 mg/kg/injection, schedule: Q04DX003 (ip), vehicle: saline",92 % of control
same,T/C,"dose: 200.0 mg/kg/injection, schedule: Q04DX003 (ip), vehicle: saline",94 % of control
same,T/C,"dose: 400.0 mg/kg/injection, schedule: Q04DX003 (ip), vehicle: saline",88 % of control
COc1cccc2c1C(=O)c1c(O)c3c(c(O)c1C2=O)CC(O)(/C(C)=N/NC(=O)CCCCC(=O)N/N=C(\C)C1(O)Cc2c(O)c4c(c(O)c2C(OC2CC(N)C(O)C(C)O2)C1)C(=O)c1c(OC)cccc1C4=O)CC3OC1CC(N)C(O)C(C)O1 (centres undefined),T/C,"dose: 0.2 mg/kg/injection, schedule: Q01DX009 (ip), vehicle: water",118 % of control
same,T/C,"dose: 0.78 mg/kg/injection, schedule: Q01DX009 (ip), vehicle: water",154 % of control
same,T/C,"dose: 1.56 mg/kg/injection, schedule: Q01DX009 (ip), vehicle: water",157 % of control and 172 % of control
same,T/C,"dose: 3.13 mg/kg/injection, schedule: Q01DX009 (ip), vehicle: water",186 % of control and 189 % of control
same,T/C,"dose: 6.25 mg/kg/injection, schedule: Q01DX009 (ip), vehicle: water",281 % of control and 289 % of control
same,T/C,"dose: 12.5 mg/kg/injection, schedule: Q01DX009 (ip), vehicle: water",100 % of control and 102 % of control
Cc1ccc(NC(=S)C#N)cc1Cl,T/C,"dose: 6.25 mg/kg/injection, schedule: Q01DX005 (ip), vehicle: saline with Tween-80",90 % of control
same,T/C,"dose: 12.5 mg/kg/injection, schedule: Q01DX005 (ip), vehicle: saline with Tween-80",92 % of control
same,T/C,"dose: 25.0 mg/kg/injection, schedule: Q01DX005 (ip), vehicle: saline with Tween-80",90 % of control
CCOC(=O)/N=[N+](\[O-])c1ccc(Cl)cc1,T/C,"dose: 100.0 mg/kg/injection, schedule: Q01DX001 (ip), vehicle: Klucel (hydroxypropylcellulose) (HPC)",100 % of control
CCOC(=O)\C(C#N)=C/C=C/C(C)=C/Nc1ccc([N+](=O)[O-])cc1[N+](=O)[O-],T/C,[13],91 % of control
same,T/C,[14],91 % of control
same,T/C,[15],102 % of control
O=C1OCc2nc3ccccc3cc21,T/C,"dose: 50.0 mg/kg/injection, schedule: Q04DX003 (ip), vehicle: Klucel (hydroxypropylcellulose) (HPC)",100 % of control
same,T/C,"dose: 100.0 mg/kg/injection, schedule: Q04DX003 (ip), vehicle: Klucel (hydroxypropylcellulose) (HPC)",98 % of control
same,T/C,"dose: 200.0 mg/kg/injection, schedule: Q04DX003 (ip), vehicle: Klucel (hydroxypropylcellulose) (HPC)",106 % of control
COC(=O)N/N=C(/CC1(O)C(=O)Nc2ccccc21)c1ccc(Cl)cc1Cl (centres undefined),T/C,[16],99 % of control
same,T/C,[17],93 % of control
same,T/C,[18],92 % of control
CC1=C/C(=N\N2CCOCC2)C(C(O)(C(F)(F)F)C(F)(F)F)C(C)(C)C1 (centres undefined),T/C,[4],96 % of control
same,T/C,[5],102 % of control
same,T/C,[6],105 % of control
CCn1cnc2c(SC)ncnc21,T/C,[19],100 % of control
same,T/C,[20],100 % of control
same,T/C,[12],95 % of control
same,T/C,"dose: 100.0 mg/kg/injection, schedule: Q04DX003 (ip), vehicle: other",100 % of control
CC(=O)OC1SCC2OC(=O)OC21 (centres undefined),T/C,[11],108 % of control
same,T/C,"dose: 100.0 mg/kg/injection, schedule: Q01DX009 (ip), vehicle: saline with Tween-80",95 % of control
same,T/C,"dose: 200.0 mg/kg/injection, schedule: Q01DX009 (ip), vehicle: saline with Tween-80",96 % of control
N#CN=[N+]([O-])c1ccc([N+](=O)[O-])cc1,T/C,"dose: 1.56 mg/kg/injection, schedule: Q01DX001 (ip), vehicle: Klucel (hydroxypropylcellulose) (HPC)",101 % of control
same,T/C,"dose: 3.12 mg/kg/injection, schedule: Q01DX001 (ip), vehicle: Klucel (hydroxypropylcellulose) (HPC)",99 % of control
same,T/C,"dose: 6.25 mg/kg/injection, schedule: Q01DX001 (ip), vehicle: Klucel (hydroxypropylcellulose) (HPC)",110 % of control
same,T/C,"dose: 6.25 mg/kg/injection, schedule: Q04DX003 (ip), vehicle: Klucel (hydroxypropylcellulose) (HPC)",101 % of control
CN=C(N)N/N=C(\C)c1ccc2c(c1)Cc1ccccc1-2,T/C,"dose: 25.0 mg/kg/injection, schedule: Q04DX002 (ip), vehicle: saline with Tween-80",122 % of control
CCCCCC(CN(C)C)C(=O)/C=C/c1ccc(Cl)c(Cl)c1 (centres undefined),T/C,"dose: 1.56 mg/kg/injection, schedule: Q01DX009 (ip), vehicle: saline",100 % of control
same,T/C,"dose: 3.12 mg/kg/injection, schedule: Q01DX009 (ip), vehicle: saline",100 % of control
same,T/C,"dose: 6.25 mg/kg/injection, schedule: Q01DX009 (ip), vehicle: saline",102 % of control
same,T/C,[19],109 % of control
same,T/C,[20],92 % of control
COC(=O)COC(=O)C1C(C(N)=O)N(CC(=O)OC)CCN1CC(=O)OC (centres undefined),T/C,[16],103 % of control
same,T/C,[17],103 % of control
same,T/C,[18],103 % of control
COc1cc2ccnc(C3(OC(=O)c4ccccc4)CCN(CCc4ccccc4)CC3)c2cc1OC,T/C,[19],96 % of control
same,T/C,[20],92 % of control
same,T/C,[11],96 % of control
COc1c(-c2ccccc2)oc2c(ccc3occc32)c1=O,T/C,"dose: 12.5 mg/kg/injection, schedule: Q01DX005 (ip), vehicle: Klucel (hydroxypropylcellulose) (HPC)",104 % of control
same,T/C,"dose: 25.0 mg/kg/injection, schedule: Q01DX005 (ip), vehicle: Klucel (hydroxypropylcellulose) (HPC)",99 % of control
same,T/C,[13],99 % of control
same,T/C,[14],87 % of control
same,T/C,[15],88 % of control
CC1(C)OCC(C2OC(C)(C)OC2C2OC(O)C=CC2=O)O1 (centres undefined),T/C,"dose: 0.78 mg/kg/injection, schedule: Q01DX009 (ip), vehicle: distilled water + Tween-80",108 % of control and 103 % of control
same,T/C,"dose: 1.56 mg/kg/injection, schedule: Q01DX009 (ip), vehicle: distilled water + Tween-80",116 % of control and 103 % of control
same,T/C,"dose: 3.13 mg/kg/injection, schedule: Q01DX009 (ip), vehicle: distilled water + Tween-80",100 % of control and 94 % of control
same,T/C,"dose: 6.25 mg/kg/injection, schedule: Q01DX009 (ip), vehicle: distilled water + Tween-80",100 % of control
CCc1cc(CN2CCN(CCO)CC2)c(O)c(CN2CCN(CCO)CC2)c1,T/C,[1],102 % of control
same,T/C,[2],97 % of control
same,T/C,[3],99 % of control
COc1cc(C(CC(C)=O)c2cc3c(cc2OC(C)=O)OCO3)cc(OC)c1OC (centres undefined),T/C,"dose: 30.0 mg/kg/injection, schedule: Q01DX005 (ip), vehicle: saline with Tween-80",95 % of control
same,T/C,[7],100 % of control and 93 % of control
same,T/C,[8],120 % of control
